Source: a melting point compilation (Tetko et al.; mined from patent text by program, amines drawn as free bases though some values may be those of a salt)
Residues, ends and D or L forms follow the SMILES beside them. *: point of attachment. Boc = CC(C)(C)OC(=O)*; OBn = c1ccc(CO*)cc1; βAla = NCCC(=O)O

| SMILES | melting point |
| --- | --- |
| CNC(=O)c1cc(C#N)cc(C)c1N | 202 to 203 °C |
| O=C(Nc1ccc(Cl)cc1)Nc1c(C(O)(C(F)(F)F)C(F)(F)F)ccc2ccccc12 | 210 to 212 °C |
| CC(=O)OCCN(C(=O)Cn1c(=O)n(C)c2nc(-c3ccccc3)ncc21)c1ccccc1 | 158 to 160 °C |
| CC(C)(CO)COc1c(-c2ccc(S(C)(=O)=O)cc2)cnn(-c2ccc(F)c(F)c2)c1=O | 161 to 162 °C |
| O=c1[nH]cc(C=Cc2cccnc2)c2ccccc12 | 222 to 224 °C |
| Cl/C(=C\n1ccnc1)c1ccc(Cl)cc1Cl | 59.1 °C |
| CCn1ncc2c3onc(-c4cccc(OC)c4)c3cnc21 | 130 to 131 °C |
| C=CCNc1nc(NC(=O)C(C)(C)C)c2scc(C)c2n1 | 88 to 89 °C |
| CC(=C1SCCCS1)c1cccc(N)c1 | 99 to 100 °C |
| O=C(NCc1ccc(Cl)cc1)c1cnc2c(F)c(Oc3ccc(CO)cc3)c(F)cc2c1O | 235 to 240 °C |
| O=C1C(Cc2ccccc2)C(c2ccccc2)=Nc2ccccc2N1Cc1ccccc1 (stereo unspecified) | 173 to 174 °C |
| COc1ccc(NCC(O)CO)cc1 (stereo unspecified) | 151 to 153 °C |
| O=C(Nc1cccc2c1C(=O)N(CCC(=O)N1CCN(c3ccncc3)CC1)C2=O)c1ccc(Cl)s1 | 167 °C |
| CSCC[C@H](NC(=O)c1ccc(/C=C(/Cn2ccnc2)c2ccc(F)cc2)cc1)C(=O)O | 106 °C |
| OCC(O)Cc1ccc(Br)cc1 (stereo unspecified) | 60.6 °C |
| COC(=O)c1[nH]c2c(C)ccc(C)c2c1NC(C)=O | 221 to 222 °C |
| COc1ccccc1N1CCN(CCn2cnc3sc4c(c3c2=O)CCN(C(C)=O)C4)CC1 | 170 to 172 °C |
| CC(C)N(Cc1ccc(Cl)cc1)C(=O)Nc1ccccc1 | 109 to 111 °C |
| O=C1COc2cccc3nc4c(c(c23)N1Cc1ccccc1)CCCC4 | 166 to 168 °C |
| CCOC(=O)c1sc2c(Br)cccc2c1C | 67 to 70 °C |
| N=C(N)Nc1cc(C(=O)O)ccc1N1C(=O)CCC1CO (stereo unspecified) | 253 to 257 °C |
| CCOC(C)=NS(=O)(=O)c1nc(-c2ccccc2)ns1 | 120 to 122 °C |
| COC(=O)c1ccc(OCCNC(=O)c2ccc(Br)cc2)cc1 | 134 to 136 °C |
| CNC(=C(Br)C#N)c1ccc(Cl)cc1 | 178 °C |
| Cc1cc(NC(=O)c2ccccc2C)ccc1Br | 144 to 146 °C |
| O=C(CCCCCBr)Nc1ccc(C(F)(F)F)cc1 | 96 to 98 °C |

| SMILES | melting point |
| --- | --- |
| Cc1ccc2c(c1)C(O)CC21CCN(CCCC(=O)c2ccc(F)cc2)C1 (stereo unspecified) | 137 to 139 °C |
| CCC(OC)(c1cccc(OCc2cc3ccccc3n(C)c2=O)c1)c1nccs1 (stereo unspecified) | 123 to 125 °C |
| Cc1nn(CC(F)(F)F)c(-c2ccc(F)cc2)c1-c1ccc2c(c1)NC(=O)CO2 | 174 °C |
| CS(=O)(=O)Nc1cccc(Nc2nc(NCc3cccc(C#N)c3)c3nc[nH]c3n2)c1 | 128 to 131 °C |
| CS(=O)c1c(C(=N)NN)nn(-c2c(Cl)cc(C(F)(F)F)cc2Cl)c1N (stereo unspecified) | 210 °C |
| COC(=O)C(COc1ccc(Cl)cc1C#N)Oc1ccccc1Cl (stereo unspecified) | 105 °C |
| COc1cccc(CN2CCN(C)CC2C2=NCCN2)c1 (stereo unspecified) | 78 to 80 °C |
| CC(=O)COC1CC2C3CCC4=CC(=O)CCC4(C)C3(F)C(O)CC2(C)C1(O)C(=O)CO (stereo unspecified) | 203 to 208 °C |
| O=C1C(=O)N(C(c2ccccc2)c2ccccc2)c2cc(F)ccc21 | 167 to 169 °C |
| CCOC(=O)C(CO)NC(=O)C(CC(=O)OCc1ccccc1)NC(=O)CCNC(=O)OC(C)(C)C (stereo unspecified) ({Boc-βAla}-Asp(OBn)-Ser-OEt; configuration not given here) | 132 to 134 °C |
| Cc1oc(-c2ccccc2)nc1COc1ccc(CCCC2SC(=O)NC2=O)cc1C(F)(F)F (stereo unspecified) | 154 to 155 °C |
| Oc1ccc(-c2cc3ccccc3nc2Cl)cc1 | 164 to 166 °C |
| c1ccc(N2C(=NCCCn3ccnc3)c3cccc4cccc2c34)cc1 | 103 to 105 °C |
| Cc1cc2c(C)cc(=O)oc2cc1O | 273 °C |
| COc1ccc(-c2nn(C(C)C)c(=O)c3ccsc23)cc1 | 124 to 126 °C |
| Cc1cc(Br)cc(/C=N/O)c1F | 126 to 127 °C |
| CCCC(=O)C(=C1NCCCS1)[N+](=O)[O-] | 54 to 58.5 °C |
| Cc1nc(=O)[nH]c2cc(Cl)c(NC(N)=O)cc12 | > 310 °C |
| CCC(=O)c1c(CC)n(Cc2ccccc2Cl)c2cc(C#N)ccc12 | 115 to 118 °C |
| CN(C)C(=O)c1cc2c(nc(C(F)(F)F)n2C)c2c1CCC(c1ccccc1)O2 (stereo unspecified) | 223 to 225 °C |
| CCCCN(Cc1ccccc1)C(=O)Nc1cccc(Cl)c1O | 59 to 62 °C |
| CCCCCNc1cc(C(=O)O)cc(S(N)(=O)=O)c1Oc1ccccc1 | 223 to 224 °C |
| CCOc1cn(C)c2nc3cc(F)c(F)cc3cc2c1=O | > 270 °C |
| CN(C(=O)CCCOc1ccc2c(c1)CN1CC(=O)NC1=N2)C1CCCCC1 | 243 to 244 °C |
| COCC(=O)Nc1c(C(=O)c2cccc(C)c2)[nH]c2cc(Cl)ccc12 | 155 to 157 °C |
| COc1ccc(CSc2ccc(S(N)(=O)=O)s2)cc1 | 139 to 141 °C |

| SMILES | melting point |
| --- | --- |
| Cc1c(NC(=O)CC(C)(C)C)cc2c(c1C)OC(C)(C)C2Cc1ccccc1 (stereo unspecified) | 186 to 187 °C |
| COc1c(C)cc(-c2[nH]c3ccccc3c2C)cc1C | 108 to 110 °C |
| CCOC(=O)c1cc(NCc2ccccc2)c(Nc2ccccc2)c(S(=O)(=O)Nc2ccccc2)c1 | 166 to 167 °C |
| CC(C)(C)Cc1nc2cc(CC(=O)O)ccc2o1 | 108 to 109 °C |
| FC(F)=C(F)CCSc1nnc(-c2ccc(Cl)cc2)s1 | 68 to 69 °C |
| CCn1ncc2c(Cl)c(C#N)cnc21 | 100 to 102 °C |
| CC(C)(C)N[C@H](Cc1ccccc1)C(=O)O | 79 to 80 °C |
| Cc1ccc(C)c2cc3ccccc3cc12 | 70 to 72 °C |
| O=C(O)CN(C(=O)c1cccc(C(F)(F)F)c1S)C1CCCC1 | 144 to 146 °C |
| COc1ccc([C@H]2O[C@](O[Si](C)(C)C)(C(F)(F)F)C(C)(C)N2C(=O)c2ccccc2)cc1 (racemic) | 120 to 123 °C |
| CC(=O)Nc1nc2c(Oc3cc(-c4ccc(C(F)(F)F)cc4)nc(N4CCN(C(=O)OC(C)(C)C)CC4)n3)cccc2s1 | 211 °C |
| Cc1nc(-n2cccc(O)c2=O)sc1C(=O)NCc1ccccc1 | 225 to 228 °C |
| CCOC(=O)C1=C(N)N=C(OCC)C(C(=O)OCC)C1c1ccc(SC)cc1 (stereo unspecified) | 132 °C |
| COC(=O)[C@@H]1CCCC[C@@H]1C(=O)N(C)CC(=O)NO (relative stereo) | 101 to 102 °C |
| OCCC(CCO)c1ccncc1 | 66 to 68 °C |
| O=C(O)c1cn(C2CCN(c3c(F)cc4c(=O)c(C(=O)O)cn(C5CC5)c4c3F)C2)nn1 (stereo unspecified) | 222 to 225 °C |
| N#CCc1cccc(Cn2ccc(OCc3ccc(F)cc3F)c(Br)c2=O)c1 | 120 to 121 °C |
| COC(=O)N[C@@H](Cc1ccccc1)[C@H](O)CCl | 163 to 164 °C |
| O=C(O)COc1ccc(OC(F)(F)F)cc1C(=S)NCc1cccc([N+](=O)[O-])c1 | 158 to 161 °C |
| CCCCc1nn2cc(CC)nc2n1Cc1ccc(-c2ccccc2-c2nnn[nH]2)cc1 | > 100 °C |
| CS(=O)(=O)Nc1cnc([N+](=O)[O-])cn1 | 204 to 207 °C |
| COc1ccc2c(Cc3c(Cl)cncc3Cl)nnc(Nc3nccs3)c2c1 | 218 to 220 °C |
| C=CCOC(=O)COc1cccc(NC(=O)NCNC(=O)c2ccccc2C(=O)c2ccccc2)c1 | 147 to 149 °C |
| OCC#Cc1cccc2ccncc12 | 138 to 139 °C |
| C=CCN(C(C)C)C(C)CC1=C(c2ccc(OC)cc2)CCCNC1=O (stereo unspecified) | 95 to 97 °C |
| OP(O)C(NC(c1ccccc1)c1ccccc1)c1ccco1 (stereo unspecified) | 193 °C |

| SMILES | melting point |
| --- | --- |
| NC(=O)NC(=O)c1nc(Cl)c(Cl)[nH]1 | > 290 °C |
| COc1ccc(N2C(=O)N(c3cccc(C(N)=O)c3)c3nc(Nc4cccc(CCN5CCN(C)CC5)c4)ncc3C2C)cc1 (stereo unspecified) | 243 to 251 °C |
| Fc1ccc(N2CCN(Cc3ccc4c(c3)NCCN4)CC2)cc1 | 126 to 127 °C |
| O=C(O)COc1ccc(OCC2CCN(c3ccncc3)CC2)cc1 | 278 to 281 °C |
| CCOC(=O)c1ccc(-c2ccc(OCCO)c(-c3ccc(N4CCCC4)c(C(C)(C)C)c3)c2)cc1 | 193 °C |
| O=S(=O)(c1cc(-c2ccc(F)cc2)c(-c2ccc(F)cc2)s1)C(F)(F)F | 104 to 106 °C |
| C=CCCc1cccc2c1C(=O)C1=C(CCCC1)C2=O | 111 to 113 °C |
| Cc1cccc(C(C)(C)C)c1NC(=O)NC1(c2cccs2)CCCCC1 | 245 to 246 °C |
| CC(=O)c1cc(C(N)=O)c(=O)[nH]c1C | > 320 °C |
| Cc1c(C)c2c(c(C)c1N)CC(C)(CN1CCC(CCc3ccccc3)CC1)O2 (stereo unspecified) | 91 to 92 °C |
| CC(=O)OCC1OC(OS(C)(=O)=S)C(OC(C)=O)C(OC(C)=O)C1OC(C)=O (stereo unspecified) | 118 to 119 °C |
| CCc1cc(Oc2ncc(C(F)(F)F)cc2Cl)nn1C(=O)NC | 85 to 87 °C |
| CCOc1cc(N)c(Cl)cc1C(=O)NC[C@H]1CN(CC2CCN(C(=O)N(C)OC)CC2)CCO1 | 127 to 129 °C |
| NS(=O)(=O)c1ccc(-n2cc(C(F)(F)F)nc2-c2ccc(-c3cscn3)cc2)cc1F | 130 to 133 °C |
| CCN(CC)CCCOc1ccc(-c2nnc(CSCCOc3ccccc3)o2)cc1 | 27 to 31 °C |
| Cc1ccc(-c2ccc3c(c2)C=C(C(=O)Nc2ccc(CN4CCCCC4)cc2)C3)cc1 | 219 to 220 °C |
| CC(=O)c1cc(CC(C)O)c(OCCCCC#N)cc1O (stereo unspecified) | 86 to 88 °C |
| C[C@@H]1O[C@@]1(Cn1cncn1)c1cc(F)ccc1F | 69 °C |
| CCC(=O)NC[C@H]1CN(c2ccc3c(c2)CCCc2cn[nH]c2-3)C(=O)O1 | 233 to 235 °C |
| O=[N+]([O-])c1c(Br)nn(Cc2ccc(Cl)cc2)c1Br | 109 °C |
| Nc1c(-c2nc(-c3ccco3)n[nH]2)cnn1CCc1ccccc1 | 175 to 176 °C |
| COc1nc(C)cnc1N(C(=O)OCC(C)C)S(=O)(=O)c1cccnc1-c1ccc([Si](C)(C)C)cc1 | 132 to 134 °C |
| COc1cc(C=O)c2oc(-c3ccc(OC)c(F)c3)cc2c1 | 161 to 163 °C |
